Patent US11198713B2, “Agents modulating beta-catenin functions and methods thereof” (FOG PHARMACEUTICALS, INC., priority 2017, dated 2021)

Each compound was assayed against T1, full-length beta-catenin (Axin site) (Homo sapiens, UniProt P35222) (assay: Competition fluorescence polarization assay (Axin site probe)). Conditions: competition fluorescence polarization, Table 2; read-out: in vitro FP EC50.
T1 construct: 15 nM full-length beta-catenin, 20 nM FITC labeled peptide in buffer
T1 sequence (P35222 1-781): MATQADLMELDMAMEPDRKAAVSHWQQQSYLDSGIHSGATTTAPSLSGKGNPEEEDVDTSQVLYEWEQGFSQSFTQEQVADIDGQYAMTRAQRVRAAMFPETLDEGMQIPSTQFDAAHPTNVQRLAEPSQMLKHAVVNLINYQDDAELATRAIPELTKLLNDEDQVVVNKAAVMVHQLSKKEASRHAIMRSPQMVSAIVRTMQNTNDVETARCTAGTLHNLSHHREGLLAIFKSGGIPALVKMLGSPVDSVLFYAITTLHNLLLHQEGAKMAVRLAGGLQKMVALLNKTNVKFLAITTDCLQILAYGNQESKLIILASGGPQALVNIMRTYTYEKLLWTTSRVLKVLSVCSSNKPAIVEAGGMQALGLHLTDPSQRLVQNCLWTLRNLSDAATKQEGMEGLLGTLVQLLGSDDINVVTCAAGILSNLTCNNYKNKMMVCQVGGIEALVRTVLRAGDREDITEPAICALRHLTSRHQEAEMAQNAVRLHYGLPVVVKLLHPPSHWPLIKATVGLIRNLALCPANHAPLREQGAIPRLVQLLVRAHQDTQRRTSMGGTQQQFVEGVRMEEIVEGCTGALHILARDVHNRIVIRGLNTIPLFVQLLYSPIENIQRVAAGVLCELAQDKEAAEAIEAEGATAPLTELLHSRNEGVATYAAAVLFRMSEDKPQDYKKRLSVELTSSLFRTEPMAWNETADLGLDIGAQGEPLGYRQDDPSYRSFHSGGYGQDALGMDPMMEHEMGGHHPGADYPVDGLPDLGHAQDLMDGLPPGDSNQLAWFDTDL
Type: binding
Method in brief: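 Competition FP: 15 nM full-length β-catenin pre-incubated 5 min with 20 nM FITC-labelled stapled Axin-site peptide, then titrated peptide added (3-fold series from 5 μM) for 15 min in the dark. Buffer 50 mM Tris pH 8.0, 250 mM NaCl, 2% glycerol, 0.5 mM EDTA; duplicate reads.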

EC50 | Compound
> 5 µM | CC[C@H](C)[C@@H]1NC(=O)[C@@](C)(NC(=O)[C@H](CCC(N)=O)NC(=O)[C@@H]2CCCN2C(C)=O)CCCC=CCN2CC(C(=O)N[C@@H](Cc3c[nH]cn3)C(=O)N[C@H](C(=O)N[C@@H](CCCNC(=N)N)C(=O)N[C@@H](CCCNC(=N)N)C(=O)N[C@H](C(=O)N[C@@H](Cc3c[nH]c4ccccc34)C(=O)N[C@@H](CCCNC(=N)N)C(N)=O)C(C)C)C(C)C)(C2)NC(=O)[C@H](CC(=O)O)NC(=O)[C@H](CC(C)C)NC1=O (single isomer, unassigned) [FP0734a, Ac-P-Q-S5-I-L-D-MA-H-V-R-R-V-W-R-NH2]
> 5 µM | CC[C@H](C)[C@@H]1NC(=O)[C@@](C)(NC(=O)[C@H](CCC(N)=O)NC(=O)[C@@H]2CCCN2C(C)=O)CCCC=CCOC(=O)N2CC(C(=O)N[C@@H](Cc3c[nH]cn3)C(=O)N[C@H](C(=O)N[C@@H](CCCNC(=N)N)C(=O)N[C@@H](CCCNC(=N)N)C(=O)N[C@H](C(=O)N[C@@H](Cc3c[nH]c4ccccc34)C(=O)N[C@@H](CCCNC(=N)N)C(N)=O)C(C)C)C(C)C)(C2)NC(=O)[C@H](CC(=O)O)NC(=O)[C@H](CC(C)C)NC1=O (single isomer, unassigned) [FP0734c, Ac-P-Q-S5-I-L-D-MA-H-V-R-R-V-W-R-NH2]
0.5 to 5 µM | CC[C@H](C)[C@@H]1NC(=O)[C@](C)(NC(=O)[C@H](CCC(N)=O)NC(=O)[C@@H]2CCCN2C(C)=O)CCCCC=CCN2CC(C(=O)N[C@@H](Cc3c[nH]cn3)C(=O)N[C@H](C(=O)N[C@@H](CCCNC(=N)N)C(=O)N[C@@H](CCCNC(=N)N)C(=O)N[C@H](C(=O)N[C@@H](Cc3c[nH]c4ccccc34)C(=O)N[C@@H](CCCNC(=N)N)C(N)=O)C(C)C)C(C)C)(C2)NC(=O)[C@H](CC(=O)O)NC(=O)[C@H](CC(C)C)NC1=O (single isomer, unassigned) [FP0735a, Ac-P-Q-R6-I-L-D-MA-H-V-R-R-V-W-R-NH2]
0.5 to 5 µM | CC[C@H](C)[C@@H]1NC(=O)[C@](C)(NC(=O)[C@H](CCC(N)=O)NC(=O)[C@@H]2CCCN2C(C)=O)CCCCC=CCOC(=O)N2CC(C(=O)N[C@@H](Cc3c[nH]cn3)C(=O)N[C@H](C(=O)N[C@@H](CCCNC(=N)N)C(=O)N[C@@H](CCCNC(=N)N)C(=O)N[C@H](C(=O)N[C@@H](Cc3c[nH]c4ccccc34)C(=O)N[C@@H](CCCNC(=N)N)C(N)=O)C(C)C)C(C)C)(C2)NC(=O)[C@H](CC(=O)O)NC(=O)[C@H](CC(C)C)NC1=O (single isomer, unassigned) [FP0735c, Ac-P-Q-R6-I-L-D-MA-H-V-R-R-V-W-R-NH2]
0.1 to 0.5 µM | CC[C@H](C)[C@@H]1NC(=O)[C@@](C)(NC(=O)[C@H](CCC(N)=O)NC(=O)[C@@H]2CCCN2C(C)=O)CCCCC=CCN2CC(C(=O)N[C@@H](Cc3c[nH]cn3)C(=O)N[C@H](C(=O)N[C@@H](CCCNC(=N)N)C(=O)N[C@@H](CCCNC(=N)N)C(=O)N[C@H](C(=O)N[C@@H](Cc3c[nH]c4ccccc34)C(=O)N[C@@H](CCCNC(=N)N)C(N)=O)C(C)C)C(C)C)(C2)NC(=O)[C@H](CC(=O)O)NC(=O)[C@H](CC(C)C)NC1=O (single isomer, unassigned) [FP0736a, Ac-P-Q-S6-I-L-D-MA-H-V-R-R-V-W-R-NH2]
0.5 to 5 µM | CC[C@H](C)[C@@H]1NC(=O)[C@@](C)(NC(=O)[C@H](CCC(N)=O)NC(=O)[C@@H]2CCCN2C(C)=O)CCCCC=CCOC(=O)N2CC(C(=O)N[C@@H](Cc3c[nH]cn3)C(=O)N[C@H](C(=O)N[C@@H](CCCNC(=N)N)C(=O)N[C@@H](CCCNC(=N)N)C(=O)N[C@H](C(=O)N[C@@H](Cc3c[nH]c4ccccc34)C(=O)N[C@@H](CCCNC(=N)N)C(N)=O)C(C)C)C(C)C)(C2)NC(=O)[C@H](CC(=O)O)NC(=O)[C@H](CC(C)C)NC1=O (single isomer, unassigned) [FP0736c, Ac-P-Q-S6-I-L-D-MA-H-V-R-R-V-W-R-NH2]
0.5 to 5 µM | CC[C@H](C)[C@@H]1NC(=O)[C@@](C)(NC(=O)[C@H](CCC(N)=O)NC(=O)[C@@H]2CCCN2C(C)=O)CCCCCC=CCOC(=O)N2CC(C(=O)N[C@@H](Cc3c[nH]cn3)C(=O)N[C@H](C(=O)N[C@@H](CCCNC(=N)N)C(=O)N[C@@H](CCCNC(=N)N)C(=O)N[C@H](C(=O)N[C@@H](Cc3c[nH]c4ccccc34)C(=O)N[C@@H](CCCNC(=N)N)C(N)=O)C(C)C)C(C)C)(C2)NC(=O)[C@H](CC(=O)O)NC(=O)[C@H](CC(C)C)NC1=O (single isomer, unassigned) [FP0738c, Ac-P-Q-S7-I-L-D-MA-H-V-R-R-V-W-R-NH2]
> 5 µM | CC[C@H](C)[C@@H]1NC(=O)[C@@]2(NC(=O)[C@H](CCC(N)=O)NC(=O)[C@@H]3CCCN3C(C)=O)CCN(CC=CCCC[C@](C)(C(=O)N[C@@H](Cc3c[nH]cn3)C(=O)N[C@H](C(=O)N[C@@H](CCCNC(=N)N)C(=O)N[C@@H](CCCNC(=N)N)C(=O)N[C@H](C(=O)N[C@@H](Cc3c[nH]c4ccccc34)C(=O)N[C@@H](CCCNC(=N)N)C(N)=O)C(C)C)C(C)C)NC(=O)[C@H](CC(=O)O)NC(=O)[C@H](CC(C)C)NC1=O)C2 (single isomer, unassigned) [FP0743a, Ac-P-Q-MC-I-L-D-R5-H-V-R-R-V-W-R-NH2]
0.5 to 5 µM | CC[C@H](C)[C@@H]1NC(=O)[C@@]2(NC(=O)[C@H](CCC(N)=O)NC(=O)[C@@H]3CCCN3C(C)=O)CCN(C2)C(=O)OCC=CCCC[C@](C)(C(=O)N[C@@H](Cc2c[nH]cn2)C(=O)N[C@H](C(=O)N[C@@H](CCCNC(=N)N)C(=O)N[C@@H](CCCNC(=N)N)C(=O)N[C@H](C(=O)N[C@@H](Cc2c[nH]c3ccccc23)C(=O)N[C@@H](CCCNC(=N)N)C(N)=O)C(C)C)C(C)C)NC(=O)[C@H](CC(=O)O)NC(=O)[C@H](CC(C)C)NC1=O (single isomer, unassigned) [FP0743c, Ac-P-Q-MC-I-L-D-R5-H-V-R-R-V-W-R-NH2]
0.1 to 0.5 µM | CC[C@H](C)[C@@H]1NC(=O)[C@@]2(NC(=O)[C@H](CCC(N)=O)NC(=O)[C@@H]3CCCN3C(C)=O)CCN(C2)C(=O)OCC=CCCCC[C@](C)(C(=O)N[C@@H](Cc2c[nH]cn2)C(=O)N[C@H](C(=O)N[C@@H](CCCNC(=N)N)C(=O)N[C@@H](CCCNC(=N)N)C(=O)N[C@H](C(=O)N[C@@H](Cc2c[nH]c3ccccc23)C(=O)N[C@@H](CCCNC(=N)N)C(N)=O)C(C)C)C(C)C)NC(=O)[C@H](CC(=O)O)NC(=O)[C@H](CC(C)C)NC1=O (single isomer, unassigned) [FP0745c, Ac-P-Q-MC-I-L-D-R6-H-V-R-R-V-W-R-NH2]
> 5 µM | CC[C@H](C)[C@@H]1NC(=O)[C@]2(NC(=O)[C@H](CCC(N)=O)NC(=O)[C@@H]3CCCN3C(C)=O)CCN(CC=CCCC[C@@](C)(C(=O)N[C@@H](Cc3c[nH]cn3)C(=O)N[C@H](C(=O)N[C@@H](CCCNC(=N)N)C(=O)N[C@@H](CCCNC(=N)N)C(=O)N[C@H](C(=O)N[C@@H](Cc3c[nH]c4ccccc34)C(=O)N[C@@H](CCCNC(=N)N)C(N)=O)C(C)C)C(C)C)NC(=O)[C@H](CC(=O)O)NC(=O)[C@H](CC(C)C)NC1=O)C2 (single isomer, unassigned) [FP0751a, Ac-P-Q-MB-I-L-D-S5-H-V-R-R-V-W-R-NH2]
0.5 to 5 µM | CC[C@H](C)[C@@H]1NC(=O)[C@]2(NC(=O)[C@H](CCC(N)=O)NC(=O)[C@@H]3CCCN3C(C)=O)CCN(C2)C(=O)OCC=CCCC[C@@](C)(C(=O)N[C@@H](Cc2c[nH]cn2)C(=O)N[C@H](C(=O)N[C@@H](CCCNC(=N)N)C(=O)N[C@@H](CCCNC(=N)N)C(=O)N[C@H](C(=O)N[C@@H](Cc2c[nH]c3ccccc23)C(=O)N[C@@H](CCCNC(=N)N)C(N)=O)C(C)C)C(C)C)NC(=O)[C@H](CC(=O)O)NC(=O)[C@H](CC(C)C)NC1=O (single isomer, unassigned) [FP0751c, Ac-P-Q-MB-I-L-D-S5-H-V-R-R-V-W-R-NH2]
0.5 to 5 µM | CC[C@H](C)[C@@H]1NC(=O)[C@]2(NC(=O)[C@H](CCC(N)=O)NC(=O)[C@@H]3CCCN3C(C)=O)CCN(C2)C(=O)OCC=CCCCC[C@@](C)(C(=O)N[C@@H](Cc2c[nH]cn2)C(=O)N[C@H](C(=O)N[C@@H](CCCNC(=N)N)C(=O)N[C@@H](CCCNC(=N)N)C(=O)N[C@H](C(=O)N[C@@H](Cc2c[nH]c3ccccc23)C(=O)N[C@@H](CCCNC(=N)N)C(N)=O)C(C)C)C(C)C)NC(=O)[C@H](CC(=O)O)NC(=O)[C@H](CC(C)C)NC1=O (single isomer, unassigned) [FP0752c, Ac-P-Q-MB-I-L-D-S6-H-V-R-R-V-W-R-NH2]
> 5 µM | CC[C@H](C)[C@@H]1NC(=O)[C@]2(NC(=O)[C@H](CCC(N)=O)NC(=O)[C@@H]3CCCN3C(C)=O)CCN(CC=CCCCCC[C@@](C)(C(=O)N[C@@H](Cc3c[nH]cn3)C(=O)N[C@H](C(=O)N[C@@H](CCCNC(=N)N)C(=O)N[C@@H](CCCNC(=N)N)C(=O)N[C@H](C(=O)N[C@@H](Cc3c[nH]c4ccccc34)C(=O)N[C@@H](CCCNC(=N)N)C(N)=O)C(C)C)C(C)C)NC(=O)[C@H](CC(=O)O)NC(=O)[C@H](CC(C)C)NC1=O)C2 (single isomer, unassigned) [FP0753a, Ac-P-Q-MB-I-L-D-S7-H-V-R-R-V-W-R-NH2]
